For 98 compounds, IC50 results are on record in PubChem BioAssay AID1117319 (Southern Research Institute, 2015).

Broadly, the IC50 is the concentration that inhibits the measured activity by half.

Each structure is given as a SMILES string. Inconclusive results are not listed.

The target of this assay is Virion infectivity factor (Human immunodeficiency virus type 1 group M subtype B (isolate BH10)) + Virion infectivity factor (Human immunodeficiency virus type 1 group M subtype B (isolate BRU/LAI)) + Virion infectivity factor (Human immunodeficiency virus type 1 group M subtype B (isolate PCV12)) + Virion infectivity factor (Human immunodeficiency virus type 1 group M subtype B (isolate HXB2)) + DNA dC->dU-editing enzyme APOBEC-3G (Homo sapiens) (UniProt P69720+P69721+P69722+P69723+Q9HC16). The experiment in a line: inhibitors of Vif binding to APOBEC3G peptide, primary screen, biochemical, TR-FRET, GST-Vif 1-94, biotin-A3G peptide, dose response retest (AID 1117319).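 Also: Vif residues 1-94 fused to GST binding biotinylated APOBEC3G peptide 110-148.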 For orientation: TR-FRET usually uses a lanthanide donor and a delayed reading to cut background.
For the compound `O=C1c2ccccc2C(=O)N1/N=C/c1ccc(O)c(O)c1O`, the IC50 was 4.54 µM.

For `O=C1C(Cl)=C(Nc2ccc3cn[nH]c3c2)C(=O)c2ccccc21`, the IC50 is 3.58 µM.

Turning to `O=[n+]1c2c(n([O-])c3cc(Cl)ccc31)CCCC2`, the IC50 was 9.81 µM.

Take `CC1(C)N([O-])c2cc([N+](=O)[O-])ccc2[N+]1=O`: the IC50 was 9.68 µM.

On to `Cc1cc(/C=N/Nc2ccc([N+](=O)[O-])cn2)c(C)n1-c1ccc(C(=O)O)cc1`, for which the IC50 is 3.25 µM.

On to `N#Cc1ccc(N2CCN(C(=O)c3cccc(F)c3)CC2)c(F)c1`, for which the IC50 was 91 µM.

As for `CN(C)c1ccc(C=c2c3cc([N+](=O)[O-])ccc3n3c2cc(-c2ccccc2)[n+]3C)cc1`, the IC50 was 3.58 µM.

For `CC(C)OP(=O)(OC(C)C)C(O)c1ccc(N(C)C)cc1` (stereo not drawn), the IC50 is 75.9 µM.

`CCc1cccc(NC(=O)CCCCCC2NC(=O)NC2C)c1` (stereo not drawn): the IC50 was 0.47 µM.

Regarding `Cc1nc2cc(-c3ccsc3-n3c(C)ccc3C)[nH]n2c(=O)c1Cl`, the IC50 was 2.92 µM.

Consider `CCN(CC)Cc1cc(Nc2c3ccccc3nc3c4ccccc4n(C)c23)cc(CN(CC)CC)c1O`, for which the IC50 was 10.9 µM.

For the compound `COc1cc2[nH]c(Cl)c([N+](=O)[O-])c2cc1OC`, the IC50 is 3.81 µM.

For `Cc1ccc(CCC(=O)Nc2ccc(S(N)(=O)=O)cc2)o1`, the IC50 was 57.4 µM.

`N#Cc1c(-c2ccco2)c2c([nH]c1=S)CCCC2`: the IC50 was 12.1 µM.

For `COc1ccccc1-n1c(-c2cc(-c3ccco3)[nH]n2)n[nH]c1=S`, the IC50 is 3.11 µM.

Consider `CCCCNC(=O)c1ccc2nc(-c3ccco3)c(-c3ccco3)nc2c1`, for which the IC50 is 1.19 µM.

Consider `COC(=O)C1=C(C)NC(=O)/C1=C\c1cc(C)n(-c2ccccc2C)c1C`, for which the half-inhibitory concentration (IC50) is 14.2 µM.

As for `COCCn1nnnc1C(c1cc2cc(OC)c(OC)cc2[nH]c1=O)N1CCN(c2ccc(O)cc2)CC1` (stereo not drawn), the IC50 was 4.8 µM.

For the compound `CCN(CC)c1ccc(N=Cc2c(O)n(-c3ccc(Cl)cc3)c(=O)[nH]c2=O)cc1`, the IC50 was 37.6 µM.

As for `CCCSC1=N/C(=C\C=C\c2ccco2)C(=O)S1`, the IC50 was 3.79 µM.

In the case of `CCOC(=O)CSc1nc2c(sc(=S)n2-c2ccccc2OC)c(=O)n1Cc1ccco1`, the IC50 is 27.2 µM.

On to `O=[N+]([O-])c1ccc(N2CCN(c3ccc(Cl)nn3)CC2)c(Cl)c1`, for which the IC50 was 99.1 µM.

Consider `Cc1cc2c(=Cc3ccc(N(C)C)cc3)c3ccccc3n2[n+]1C`, for which the IC50 was 16.9 µM.

As to `O=C1N=C(N2CCOCC2)SC1=Cc1ccco1`, the IC50 was 92.5 µM.

On to `COc1ccccc1-n1cnc2cc(NCc3cccs3)ccc21`, for which the IC50 was 82.7 µM.

On to `CSc1ccc(/C=N/Nc2cccc(C(=O)O)c2)cc1`, for which the IC50 is 11.2 µM.

As to `O=[n+]1c2c(n([O-])c3cc(F)c(F)cc31)CCCC2`, the IC50 is 5.33 µM.

`CC1=C(C#N)C(=O)N(C2CCS(=O)(=O)C2)C(=O)/C1=C\c1ccco1` (stereo not drawn): the IC50 was 0.62 µM.

Take `CCOC(=O)c1c2c(n(Cc3ccccc3)c1C)C(=O)C(=O)c1ccccc1-2`: the IC50 was 79.5 µM.

On to `O=C(Nc1ccccc1F)c1coc(=O)c(Br)c1`, for which the IC50 is 7.06 µM.

As to `Cc1cc(NC(=O)Cc2cccs2)no1`, the IC50 is 3.92 µM.

For the compound `NC1=NC(=O)/C(=C\c2ccco2)S1`, the IC50 is 3.07 µM.

In the case of `CCOC(=O)/C=C1\SCC(=O)N1CC(=O)NC(C)c1ccc(F)cc1` (stereo not drawn), the IC50 was 28.8 µM.

Consider `CCOc1ccc(C(=O)NC(=S)Nc2ccc(N3CCC(C)CC3)cc2)cc1[N+](=O)[O-]`, for which the IC50 was 55.4 µM.

Consider `Nc1ccc2c(O)cc(S(=O)(=O)O)cc2c1`, for which the IC50 was 9.44 µM.

As for `Cc1cc(C(F)(F)F)n2nc(C(=O)O)c(Cl)c2n1`, the half-inhibitory concentration (IC50) is 79.9 µM.

On to `Nc1ncnc2oc(-c3ccco3)c(-c3ccco3)c12`, for which the IC50 is 0.55 µM.

As to `Cc1nc2cc(NC(=O)Nc3ccc(N4CCOCC4)cc3)ccc2n1C`, the IC50 is 99.2 µM.

Take `Cc1ccsc1C=Nc1ccc(O)cc1`: the IC50 is 17.1 µM.

Consider `O=C(O)c1cccc2c1NC(C(=O)O)C1CC(Sc3ccccc3[N+](=O)[O-])C(Cl)C21` (stereo not drawn), for which the IC50 was 0.5 µM.

As for `NN=C1C(Cl)=C(Cl)C(Cl)=C1Cl`, the IC50 is 10.6 µM.

`O=C(NN1C(=O)/C(=C/C=C/c2ccco2)SC1=S)c1ccccc1O`: the IC50 was 1.93 µM.

As for `Oc1ccc(NCc2ccccc2OCc2ccccc2)cc1`, the IC50 was 3.97 µM.

For the compound `O=C(NCc1ccc2c(c1)OCO2)c1cc2ncc(Br)cn2n1`, the IC50 was 33.7 µM.

With `COc1ccc(Oc2nc(C)cc(C)c2C#N)cc1`, the IC50 was 59.3 µM.

Turning to `Cc1ccc(C)n1-c1ccc(-c2nnc3n2CCCCC3)s1`, the IC50 was 8.58 µM.

On to `O=C(O)C1Nc2c(C(=O)N3CCOCC3)cccc2C2C=CCC12` (stereo not drawn), for which the IC50 was 2.02 µM.

With `O=c1[nH][nH]c2c(N=Cc3ccccc3O)ccc(F)c12`, the IC50 is 0.87 µM.

With `CCC(C)(C)n1nnnc1C(c1cc2cc(C)ccc2[nH]c1=O)N1CCCc2ccccc21` (stereo not drawn), the IC50 was 93.5 µM.

Consider `O=C1CC(Nc2ccc(N3CCOCC3)cc2)C(=O)N1Cc1ccccc1` (stereo not drawn), for which the IC50 was 2.29 µM.

As to `S=c1nc(-c2ccc(Br)cc2)oc2c1CCCC2`, the IC50 is 61.7 µM.

As to `O=C1C(Cl)=C(N2CCOCC2)C(=O)N1c1ccccc1`, the IC50 is 2.18 µM.

As to `O=C(Nc1cc(Cl)ccn1)C1CCN(S(=O)(=O)c2cccs2)CC1`, the IC50 is 56.8 µM.

With `Cc1ccc(-n2nc(C)c(C3C(C#N)=C(N)Oc4c3c(=O)oc3ccccc43)c2Cl)cc1` (stereo not drawn), the IC50 is 11.1 µM.

For `COc1cc(-c2ccc(Nc3ccccc3C(=O)O)c(OC)c2)ccc1Nc1ccccc1C(=O)O`, the IC50 was 0.94 µM.

For `C=CCN=c1scc(-c2ccco2)n1/N=C/c1ccc(O)c(O)c1O`, the IC50 is 1.38 µM.

Take `CCN1CCC(=NNC(=O)CC23CC4CC(CC(C4)C2)C3)CC1`: the IC50 is 97.5 µM.

For `Cc1onc(-c2c(F)cccc2Cl)c1C(=O)Nc1nnc(C2CC2)s1`, the IC50 is 10.7 µM.

In the case of `O=C(O)C(Cc1ccccc1)N1C(=O)/C(=C/C=C/c2ccco2)SC1=S` (stereo not drawn), the IC50 is 2.11 µM.

As for `Cc1cc(C(=O)CSc2nc3ccccc3c(=O)[nH]2)c(C)n1C`, the IC50 was 31.6 µM.

`CC1CCC/C(=C\Nc2ccc(C(=O)O)c(O)c2)C1=O` (stereo not drawn): the IC50 is 17.1 µM.

As for `Cc1cc(C(C)c2ccccc2)c(O)c(CN2CCOCC2)c1C` (stereo not drawn), the IC50 is 28.8 µM.

Turning to `O=C1c2ccccc2CC1Sc1nnc(-c2ccccn2)o1` (stereo not drawn), the IC50 was 98.4 µM.

On to `O=c1[nH]c(=S)[nH]c2c1C(c1ccc(Br)cc1)c1c([nH]c(=S)[nH]c1=O)O2`, for which the IC50 was 41.1 µM.

For `Cc1ccnc(NS(=O)(=O)c2ccc(NC(=O)Cc3cccs3)cc2)n1`, the IC50 was 8.35 µM.

`N#CC(C#N)=Cc1cccn1-c1ccc(C(=O)O)cc1`: the IC50 was 10.3 µM.

With `COc1cccc(=O)c2c(C)n(-c3ccc(C(=O)O)cc3)c(C)c12`, the IC50 is 3.22 µM.

For the compound `O=c1cc(CO)oc(C(Nc2ccccn2)c2ccc(F)cc2)c1O` (stereo not drawn), the IC50 was 85.7 µM.

For the compound `FC(F)(F)C1=Nc2cccc3cccc(c23)N1`, the IC50 is 5.95 µM.

Turning to `CCc1cc2cc(C)cc(C)c2nc1SCC(=O)N1CCN(C(=O)c2ccco2)CC1`, the IC50 is 12.6 µM.

Regarding `CCOc1cccc(=O)c2c(C)n(-c3ccc(C(=O)O)cc3)c(C)c12`, the IC50 was 4.49 µM.

`Cc1ccc(-c2ccc(CCC(=O)O)n2NC(N)=S)cc1`: the IC50 is 11.5 µM.

Turning to `CN1CCc2cccc3c2[C@H]1Cc1ccc(O)c(O)c1-3`, the IC50 was 0.89 µM.

As for `O=C1C2CCCN2C(c2cccs2)N1c1ccccn1` (stereo not drawn), the IC50 is 82 µM.

`COc1cccc(C=Nc2cc(C(C)C)c(O)cc2C)c1O`: the IC50 was 34.2 µM.

As for `O=C1CCCC(O)=C1N=Nc1ccc(S(=O)(=O)N2CCOCC2)cc1`, the IC50 was 6.66 µM.

With `O=C1Cc2cccc(=O)c(O)c2C(=O)O1`, the IC50 is 14 µM.

Regarding `Cc1ccc(OCCSc2nnc(-c3ccncc3)n2C)cc1`, the IC50 is 75.9 µM.

As to `O=[n+]1c2c(n([O-])c3cc(Br)ccc31)CCC2`, the IC50 was 19.4 µM.

Regarding `O=[N+]([O-])c1ccc2c([N+](=O)[O-])ccc3c2c1CC3`, the IC50 was 12.2 µM.

As for `O=C(NCc1ccccn1)c1ccc2nc(-c3ccco3)c(-c3ccco3)nc2c1`, the IC50 was 0.45 µM.

`NC(=O)Cn1c(=O)n(Cc2ccco2)c(=O)c2c3c(sc21)CCCCC3`: the IC50 is 3.8 µM.

For `CN(C)c1ccc2cc(S(=O)(=O)O)cc(O)c2c1`, the IC50 is 10.2 µM.

For `CN=c1scc(C)n1/N=C/c1ccc(O)c(O)c1O`, the IC50 is less than 1.84 µM.

Consider `O=C1NC(=S)S/C1=C\c1ccc(SCc2ccco2)o1`, for which the IC50 is 0.81 µM.

`CNc1ccc(Br)cc(C(=O)/C=C/c2ccc(Cl)cc2Cl)c1=O`: the IC50 is 9.23 µM.

As for `O=C1NC(=O)N(Cc2ccccc2)C(=O)/C1=C\C=C\c1ccco1`, the IC50 was 4 µM.

In the case of `O=C1CC(Nc2ccc(N3CCOCC3)cc2)C(=O)N1C1CCCCC1` (stereo not drawn), the IC50 was 2.74 µM.

Regarding `O=C(O)COc1ccc2c(c1)O/C(=C\c1ccco1)C2=O`, the IC50 was 22.5 µM.

Turning to `COC(=O)C(C)Sc1nnc(Cc2cc(=O)[nH]c(=O)[nH]2)n1-c1cc(C)ccc1C` (stereo not drawn), the IC50 was 95.6 µM.

On to `CCN(CC)c1ccc(N=Cc2ccc(N(CC)CC)cc2O)cc1`, for which the IC50 was 50.7 µM.

Consider `C=C(C)C(=O)Nc1cccc(C2=NOC3(C2)C[C@@H](C(N)=O)N(C(=O)c2cc([N+](=O)[O-])cc([N+](=O)[O-])c2)C3)c1` (stereo partly drawn), for which the concentration for half-maximal inhibition (IC50) was 4.69 µM.

For the compound `COC(=O)c1ccc(COc2ccccc2/C=C(\C#N)C(=O)Nc2c(C)cc(C)cc2C)cc1`, the IC50 is 22.9 µM.

For `COc1cccc(NC(=O)CSc2nnc(-c3ccco3)c(-c3ccco3)n2)c1`, the IC50 is 10.2 µM.

With `N#Cc1c(-c2ccco2)cc(-c2ccccc2)[nH]c1=O`, the IC50 was 14 µM.

`CCOC(=O)C1CCCN(C(=O)c2cc(-c3ccco3)nc3ccccc23)C1` (stereo not drawn): the IC50 was 2.64 µM.

In the case of `O=C1[C@@H]2C(Cc3ccc(O)cc3)NC3(C(=O)Nc4ccc(F)cc43)[C@@H]2C(=O)N1c1ccc(F)cc1` (stereo partly drawn), the IC50 is 64.5 µM.

Regarding `O=C1NC(=O)N(c2cccc(Cl)c2)C(=O)/C1=C\c1ccc(Sc2nc3ccccc3[nH]2)o1`, the IC50 was 10.1 µM.
